Measured values: US5593994A, “Prostaglandin synthase inhibitors” (The DuPont Merck Pharmaceutical Company, priority 1994, dated 1997)

Assays:
PGHS 2 = molecular target: T1, PGHS 2 (Homo sapiens, UniProt P35354); test: Prostaglandin G/H Synthase Inhibition Assay (PGHS 2); type: biochemical; settings: Table A; 100 μM arachidonate; 2 min preincubation; read-out: IC50 (PGHS2)
T1 sequence (P35354 18-604): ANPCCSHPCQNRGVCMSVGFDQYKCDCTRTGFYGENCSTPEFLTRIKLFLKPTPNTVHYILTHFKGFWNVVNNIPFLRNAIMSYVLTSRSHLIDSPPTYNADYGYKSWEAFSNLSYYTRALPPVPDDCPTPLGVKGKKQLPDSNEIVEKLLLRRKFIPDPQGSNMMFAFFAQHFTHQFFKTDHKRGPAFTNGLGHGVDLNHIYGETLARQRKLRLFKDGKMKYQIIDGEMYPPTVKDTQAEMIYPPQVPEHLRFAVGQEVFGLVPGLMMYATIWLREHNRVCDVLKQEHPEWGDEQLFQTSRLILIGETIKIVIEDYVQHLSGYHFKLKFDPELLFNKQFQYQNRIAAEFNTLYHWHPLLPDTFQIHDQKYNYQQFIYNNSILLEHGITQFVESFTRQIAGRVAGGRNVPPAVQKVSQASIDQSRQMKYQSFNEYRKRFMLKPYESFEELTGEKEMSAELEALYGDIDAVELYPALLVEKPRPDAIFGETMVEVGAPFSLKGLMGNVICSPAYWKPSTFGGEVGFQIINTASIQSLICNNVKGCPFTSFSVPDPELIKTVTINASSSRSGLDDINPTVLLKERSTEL
Method: Prostaglandin G/H synthase (cyclooxygenase, PGHS, Cox) activity was determined spectrophotometrically essentially as described by Kulmacz et al (reference). […] The assay was adapted to a 96 well microtiter dish format as described below. […] The reaction plate was immediately placed in a microtiter reader and readings made at 610 nm for 1.5 min at 3 sec intervals. Reaction rates were calculated from the slope of the linear portion of the absorbance versus time curve. Rates for control samples lacking added inhibitors were used to calculate the percent inhibition of each test compound.
The ratio PGHS 1 IC50 /PGHS 2 IC50 is referred to as the selectivity ratio.

[1] = tested on: PGE2 production in human monocytes; test: Cellular Assay: inhibition of PGE2 production in LPS-stimulated human peripheral blood monocytes; type: cell-based; settings: Monocyte, Table B, LPS 1 μg/ml, 17.5 hours
Method: Human peripheral blood monocytes were obtained from normal donor blood by leukophoresis and isolated by elutriation. Monocytes were suspending in RPMI medium at 2×10^6 cells/ml, and plated at 200 μL/well in 96 well microtiter plates. Test compounds were added to the cells at appropriate concentration in DMSO such that the final DMSO concentration was 0.5% in the medium. Cells and compound or DMSO alone were incubated for 1 hour at 37° C. at which time cells were stimulated with 1 μg/ml LPS (Lipopolysaccharide, Salmonella typehrium, 5 mg/ml in 0.1% aqueous TEA) to induce PGHS 2 enzyme activity and prostaglandin production.

[2] = tested on: both isoenzymes (prostaglandin G/H synthase, Cox 1 and Cox 2); settings: cited from earlier work
Cox-2 = settings: cited from earlier work
prostaglandin synthesis = settings: in vivo; cited from earlier work

Question: For `CS(=O)(=O)c1ccc(-c2ccccc2-c2ccccc2)cc1` [Example 1], which IC50 (PGHS 2) is on record?
Answer: The IC50 was 10 to 50 µM.

Question: For `CS(=O)(=O)c1ccc(-c2ccccc2-c2ccc(F)cc2)cc1` [Example 2], which IC50 [1] is on record?
Answer: Its IC50 is 0.01 to 0.05 µM.

Question: With `Cc1ccc(-c2ccccc2-c2ccc(S(C)(=O)=O)cc2)cc1` [Example 3] as the molecule, how does the IC50 (PGHS 2) read?
Answer: The IC50 was 10 to 50 µM.

Question: With `COc1cccc(-c2ccccc2-c2ccc(S(C)(=O)=O)cc2)c1` [Example 4] as the molecule, how does the IC50 [1] read?
Answer: The IC50 was 0.051 to 0.1 µM.

Question: What about the IC50 (PGHS 2) of the same molecule?
Answer: Its IC50 is 10 to 50 µM.

Question: Which IC50 [1] does the source give for `COc1ccc(-c2ccccc2-c2ccc(S(C)(=O)=O)cc2)cc1` [Example 5] here?
Answer: Its IC50 is 0.01 to 0.05 µM.

Question: What about the IC50 (PGHS 2) of the same molecule?
Answer: Its IC50 is under 10 µM.

Question: For `COc1ccc(-c2ccccc2-c2ccc(S(C)(=O)=O)cc2)cc1OC` [Example 6], which IC50 (PGHS 2) is on record?
Answer: Its IC50 is 50 to 300 µM.

Question: For `CS(=O)(=O)c1ccc(-c2ccccc2-c2ccc(N)cc2)cc1` [Example 16], which IC50 (PGHS 2) is on record?
Answer: Its IC50 is 50 to 300 µM.

Question: What does the source list for `CN(C)c1ccc(-c2ccccc2-c2ccc(S(C)(=O)=O)cc2)cc1` [Example 20]?
Answer: IC50 [1]: 0.01 to 0.05 µM; IC50 (PGHS 2): 10 to 50 µM

Question: For `CS(=O)(=O)c1ccc(-c2ccccc2-c2ccc(C=O)cc2)cc1` [Example 41], which IC50 [1] is on record?
Answer: The IC50 was 0.051 to 0.1 µM.

Question: What about the IC50 (PGHS 2) of the same molecule?
Answer: The IC50 was 10 to 50 µM.

Question: For `COCc1ccc(-c2ccccc2-c2ccc(S(C)(=O)=O)cc2)cc1` [Example 42], which IC50 (PGHS 2) is on record?
Answer: Its IC50 is under 10 µM.

Question: For `CS(=O)(=O)c1ccc(-c2ccccc2-c2ccc(CO)cc2)cc1` [Example 43], which IC50 (PGHS 2) is on record?
Answer: Its IC50 is 50 to 300 µM.

Question: Which IC50 (PGHS 2) does the source give for `CS(=O)(=O)c1ccc(-c2ccccc2-c2ccc3sccc3c2)cc1` [Example 47] here?
Answer: The IC50 was 10 to 50 µM.

Question: Which results are given for `CS(=O)(=O)c1ccc(-c2ccccc2-c2cc3ccccc3s2)cc1` [Example 48]?
Answer: IC50 [1]: 0.01 to 0.05 µM; IC50 (PGHS 2): < 10 µM

Question: For `CS(=O)(=O)c1ccc(-c2ccccc2-c2ccc3ccccc3c2)cc1` [Example 49], which IC50 [1] is on record?
Answer: The IC50 was 0.051 to 0.1 µM.

Question: What about the IC50 (PGHS 2) of the same molecule?
Answer: The IC50 was 10 to 50 µM.

Question: With `COc1cccc2cc(-c3ccccc3-c3ccc(S(C)(=O)=O)cc3)ccc12` [Example 50] as the molecule, how does the IC50 (PGHS 2) read?
Answer: The IC50 was 10 to 50 µM.

Question: With `CS(=O)(=O)c1ccc(-c2ccccc2-c2cccnc2)cc1` [Example 51] as the molecule, how does the IC50 (PGHS 2) read?
Answer: The IC50 was 50 to 300 µM.

Question: For `CS(=O)(=O)c1ccc(-c2ccccc2-c2ccc3ccccc3n2)cc1` [Example 52], which IC50 (PGHS 2) is on record?
Answer: The IC50 was 50 to 300 µM.

Question: With `CS(=O)(=O)c1ccc(-c2ccccc2-c2cnc3ccccc3c2)cc1` [Example 53] as the molecule, how does the IC50 (PGHS 2) read?
Answer: Its IC50 is 50 to 300 µM.

Question: Which IC50 (PGHS 2) does the source give for `CS(=O)(=O)c1ccc(-c2ccccc2C2=CCCCC2)cc1` [Example 70, 1-Cyclohexene-2-(4'-methylsulfonylphenyl)benzene] here?
Answer: The IC50 was 10 to 50 µM.

Question: Which IC50 (PGHS 2) does the source give for `CS(=O)(=O)c1ccc(-c2ccccc2C2CCCCC2)cc1` [Example 71] here?
Answer: Its IC50 is 10 to 50 µM.

Question: For `CS(=O)(=O)c1ccc(-c2cc(N)ccc2-c2ccc(F)cc2)cc1` [Example 78], which IC50 (PGHS 2) is on record?
Answer: The IC50 was 50 to 300 µM.

Question: Which IC50 (PGHS 2) does the source give for `CS(=O)(=O)c1ccc(-c2ccc(N)cc2-c2ccc(F)cc2)cc1` [Example 79] here?
Answer: The IC50 was 50 to 300 µM.

Question: For `CS(=O)(=O)c1ccc(-c2cc([N+](=O)[O-])ccc2-c2ccc(F)cc2)cc1` [Example 80], which IC50 (PGHS 2) is on record?
Answer: The IC50 was 10 to 50 µM.

Question: With `CS(=O)(=O)c1ccc(-c2ccc([N+](=O)[O-])cc2-c2ccc(F)cc2)cc1` [Example 81] as the molecule, how does the IC50 [1] read?
Answer: Its IC50 is 0.051 to 0.1 µM.

Question: And the IC50 (PGHS 2)?
Answer: The IC50 was 10 to 50 µM.

Question: Which IC50 (PGHS 2) does the source give for `CS(=O)(=O)c1ccc(-c2cc(O)ccc2-c2ccccc2)cc1` [Example 87, 3-(4'-methylsulfonylphenyl)-4-phenylphenol] here?
Answer: Its IC50 is 50 to 300 µM.

Question: For `CC(=O)c1ccc(-c2ccc(F)cc2)c(-c2ccc(S(C)(=O)=O)cc2)c1` [Example 93], which IC50 (PGHS 2) is on record?
Answer: Its IC50 is 10 to 50 µM.

Question: With `CS(=O)(=O)c1ccc(-c2ccccc2Oc2ccc(F)cc2)cc1` [Example 141] as the molecule, how does the IC50 (PGHS 2) read?
Answer: The IC50 was under 10 µM.

Question: With `CS(=O)(=O)c1ccc(-c2ccccc2OC2CCCCC2)cc1` [Example 143] as the molecule, how does the IC50 (PGHS 2) read?
Answer: The IC50 was under 10 µM.

Question: Which results are given for `CS(=O)(=O)c1ccc(-c2ccccc2Oc2ccccc2)cc1` [Example 144, 1-Phenoxy-2-(4'-methylsulfonylphenyl)benzene]?
Answer: IC50 [1]: 0.051 to 0.1 µM; IC50 (PGHS 2): < 10 µM

Question: For `CS(=O)(=O)c1ccc(-c2ccccc2OCc2ccccc2)cc1` [Example 145], which IC50 (PGHS 2) is on record?
Answer: Its IC50 is 50 to 300 µM.

Question: With `CS(=O)(=O)c1ccc(-c2ccccc2N2CCCCC2)cc1` [Example 151, 1-[2-(4-methylsulfonylphenyl)phenyl]piperidine] as the molecule, how does the IC50 (PGHS 2) read?
Answer: The IC50 was 10 to 50 µM.

Question: For `CS(=O)(=O)c1ccc(-c2ccccc2C#Cc2ccccc2)cc1` [Example 152], which IC50 (PGHS 2) is on record?
Answer: Its IC50 is under 10 µM.

Question: With `CS(=O)(=O)c1ccc(-c2ccccc2-n2cccc2)cc1` [Example 153, 1-[2-(4'-methylsulfonylphenyl)phenyl]pyrrole] as the molecule, how does the IC50 (PGHS 2) read?
Answer: The IC50 was 50 to 300 µM.

Question: With `CS(=O)(=O)c1ccc(-c2ccccc2-c2ccccc2)c(Cl)c1` [Example 305] as the molecule, how does the IC50 (PGHS 2) read?
Answer: The IC50 was 50 to 300 µM.

Question: For `NS(=O)(=O)c1ccc(-c2ccccc2-c2ccccc2)cc1` [Example 312, 2-(4-aminosulfonylphenyl)-1-biphenyl], which IC50 (PGHS 2) is on record?
Answer: Its IC50 is under 10 µM.

Question: Which IC50 (PGHS 2) does the source give for `CS(=O)(=O)c1ccc(-c2cc3ccccc3cc2-c2ccccc2)cc1` [Example 401, 2-(4-methylsulfonylphenyl)-3-phenylnaphthalene] here?
Answer: Its IC50 is 10 to 50 µM.

Question: For `CS(=O)(=O)c1ccc(-c2cccnc2-c2ccc(F)cc2)cc1` [Example 411], which IC50 (PGHS 2) is on record?
Answer: The IC50 was 10 to 50 µM.

Question: Which IC50 (PGHS 2) does the source give for `COc1ccc(-c2ncccc2-c2ccc(S(C)(=O)=O)cc2)cc1` [Example 412] here?
Answer: The IC50 was 10 to 50 µM.

Question: Which mode of inhibition [2] does the source give for `CS(=O)(=O)Nc1ccc([N+](=O)[O-])cc1OC1CCCCC1` [NS-398] here?
Answer: Its mode of inhibition is “competitive toward both isoenzymes”.

Question: And the time-dependence of inhibition (Cox-2; Cox-2, longer exposure)?
Answer: The time-dependence of inhibition was “selective time-dependence against Cox-2”.

Question: And the “tightness / reversibility of binding inhibition” value (Cox-2; reversed only following enzyme denaturation and organic extraction)?
Answer: Its value is “extremely tight binding inhibition”.

Question: And the gastric lesions (prostaglandin synthesis)?
Answer: The gastric lesions was “nor produce gastic lesions”.

Question: What about the gastric prostaglandin synthesis (prostaglandin synthesis) of the same molecule?
Answer: Its gastric prostaglandin synthesis is “did not block gastric prostaglandin synthesis”.
